Measured values: US6383814B1, “Cationic amphiphiles for intracellular delivery of therapeutic molecules” (Genzyme Corporation, priority 1994, dated 2002)

Legend:
lungs of balb/c mice = tested on: lungs of balb/c mice
Protocol: This assay was used to assess the ability of the cationic amphiphiles of the invention to transfect cells in vivo from live specimens. In the assay, the lungs of balb/c mice were instilled intra-nasally (the procedure can also be performed trans-tracheally) with 100 μl of cationic amphiphile:DNA complex, which was allowed to form during a 15-minute period prior to administration according to the following procedure. The amphiphile (premixed with co-lipid, see below) was hydrated in water for 10 minutes, a period sufficient to yield a suspension at twice the final concentration required. This was vortexed for two minutes and aliquoted to provide 55 microliter quantities for each mouse to be instilled. Similarly, DNA encoding the reporter (CAT) gene was diluted with water to a concentration twice the required final concentration, and then aliquoted at 55 microliters for each mouse to be instilled. The lipid was gently combined with the DNA (in a polystyrene tube), and the complex allowed to form for 15 minutes before the mice were instilled therewith.
The plasmid used (pCMVHI-CAT, see Example 4) provides an encoding DNA for chloramphenicol transferase enzyme. Specifics on the amphiphile:DNA complexes are provided below.
Two days following transfection, mice were sacrificed, and the lungs and trachea removed, weighed, and homogenized in a buffer solution (250 mM Tris, pH 7.8, 5 mM EDTA). The homogenate was darifed by centrifugation, and the deacetylases therein were inactivated by heat treatment at 70° C. for 10 minutes. Lysate was incubated overnight with acetyl coenzyme A and C^14-chloramphenicol. CAT enzyme activity was then visualized by thin layer chromatography (“TLC”) following an ethyl acetate extraction.
The presence of the enzyme CAT will cause an acetyl group to be transferred from acetyl coenzyme A to C^14-chloramphenicol. The acetylated/radiolabeled chloramphenicol migrates faster on a TLC plate and thus its presence can be detected.
With respect to the comparison provided by FIG. 10, the following conditions are of note. The transfection solution for spermidine cholesterol carbamate contained 6 mM DNA measured as concentration of nucleotide, and 1.5 mM of cationic amphiphile. […] For transfection with DC-chol, the molar ratio of DC-chol to DOPE was 3:2, and the concentrations of cationic amphiphile and of DNA (as nucleotide) were 1.3 mM and 0.9 mM, respectively. For transfection with DMRIE, the molar ratio of DMRIE to DOPE was 1:1 and the concentrations of cationic amphiphile and of DNA were 1.7 mM and 12 mM, respectively.

[1] = tested on: Immortalized human cystic fibrosis airway cells (CFT-1); assay: SPQ assay of cAMP-stimulated Cl− channel activity after pCMV-CFTR transfection; format: cell-based
Protocol: Immortalized human cystic fibrosis airway cells (CFT-1, as above) were used.
In preparation for the assay, the cells were grown on glass coverslips until approximately 60% confluent The cells were hen transfected with a complex of spermidine cholesterol carbamate:DOPE (1:1) and a plasmid(pCMV-CFTR) containing a cDNA that encodes wild type human CFTR pCMV-CFTR plasmid is a construct containing the encoding sequence for CFTR and the following regulatory elements, a CMV promoter and enhancer, and an SV40 polyadenylation signal. Additional constructs suitable for the practice of this example include pMT-CFTR, Cheng et al., Cell, 63,827-834 (1990). The complex used was 10.5 μmolar of spermidine cholesterol carbamate (also of DOPE) and 30 μmolar of pCMV-CFTR based on nucleotide.
48 hours after amphiphile-mediated transfection, cells were tested for cAMP-stimulated Cl^− channel activity using the 6-methoxy-N-(3-sulfopropyl)quinolinium (“SPQ”) assay. […] In the assay, cAMP-dependent Cl^− channel activity was assessed using “SPQ” (from Molecular Probes, Eugene, Oreg.), a halide-sensitive fluorophore. Increases in halide permeability results in a more rapid increase in SPQ fluorescence, and the rate of change (rather than the absolute change in fluorescence) is the important variable in assessing Cl^− permeability. […]

[2] = Excipient selection against amphiphile/DNA aggregate formation; format: physicochemical; details: particularly as DNA concentration is increased
Excerpt: Additionally, the therapeutic compositions of the invention can in general be formulated with excipients (such as the carbohydrates lactose, trehalose, sucrose, mannitol, maltose or galactose) and may also be lyophilized (and then rehydrated) in the presence of such excipients prior to use. Conditions of optimized formulation for each amphiphile of the invention are capable of determination by those skilled in the pharmaceutical art. […] Addition of such excipients maintains the consistency of lyophilized pharmaceutical compositions during storage, and prevent difficulties such as aggregation, or insolubity, that may likely occur upon rehydration from the lyophilized state.

lung and heart = assay: Intravenous delivery of pCF-1CAT complex, CAT expression in organs; format: in vivo, BALB/c mouse; details: for organ distribution of CAT expression: DNA 0.9 mM, i.v. tail vein, 48 h
Protocol: The reporter plasmid pCF-1CAT (Example 4) was used and was purified to minimize endotoxin (<1 EU/mg pDNA), and also chromosomal DNA contamination (<2%). Amphiphile No. 53 (1:1 with DOPE)/DNA complex was prepared according to the procedures of Example 3. The amphiphile was provided as the free base, the plasmid was prepared as a sodium salt in water, and the DOPE was provided in zwitterionic form.
The animal model was the BALB/c mouse. Females 6-8 weeks old weighing 16-18 g were injected intravenously using the tail vein, using 5 animals per group. The volume of lipid:pDNA complex used was 100 μl in all experiments. Unless noted otherwise, mice were sacrificed 48 h following administration of the complex. Organs were frozen immediately on dry ice to store for subsequent analysis.
Expression of chloramphenicol acetyl transferase (CAT) was quantitated using a radiochemical assay for CAT enzymatic activity. Organs Were weighed and homogenized on ice in a lysis buffer containing protease inhibitors. The lysate was freeze-thawed 3×, centrifuged, and heated to 65° C. to inactivate deacetylases before adding it to a reaction mixture containing ^14C-chloraamphenicol. After an incubation at 37° C., the mixture was extracted with ethyl acetate, concentrated, spotted onto TLC plates and eluted with CHCl3/MeOH. Spots corresponding to the acylated reaction products were quantitated (Betagen) and converted to ng CAT activity using authentic CAT standards.

[3] = tested on: CFT-1 cell line (human cystic fibrosis bronchial epithelial cells); assay: Cell transfection assay (β-galactosidase expression); format: cell-based; details: 1:1 mixture with DOPE, pCMVβ
Protocol: Following combination of the solutions, a thin film was produced by removing chloroform from the mixture by evaporation under reduced pressure (20 mm Hg). The film was further dried under vacuum (1 mm Hg) for 24 hours.
The resulting suspension was then diluted with 4 ml of water to yield a solution that is 670 μM in cationic amphiphile and 670 μM in neutral colipid.
For preparation of the transfecting solution, DNA encoding for β-galactosidase (pCMVβ, ClonTech., Palo Alto, Calif.) was dissolved in OptiMEM culture medium (Gibco/BRL No. 31885-013).
The resulting 335 μM solutions were then serially diluted 7 times to generate 8 separate amphiphile-containing solutions having concentrations ranging from 335 μM to 2.63 μM, with each resultant solution having a volume of 165 μl. Thus, 64 solutions were prepared in all, there being 8 wells each of 8 different concentrations of amphiphile/DOPE.
Independently, DNA solutions (165μl, 960 μM) were pipetted into 8 wells containing OptiMEM (165 μl), and the resulting 480 μM solutions were then serially diluted 7 times to generate 8 separate 165 μl solutions from each well, with the concentrations of DNA in the wells ranging from 480 μM to 3.75 μM. […]

lungs of mice = assay: CAT assay, parts B and C: intra-nasal, pCF1/CAT or pCF2/CAT vectors; details: mouse
Excerpt: That the novel amphiphiles of the invention are an important contribution to the art is immediately seen by comparing their performance—as in vivo transfection enhancers—to that of closely related cationic amphiphiles that lack the novel T-shape. It has been determined that spermidine cholesterol carbamate provides a much greater level of enhancement than N^1-spermidine cholesteryl carbamate which contains the same number of carbon and nitrogen atoms in its cationic alkylamine component but which is linear and not “T-shaped”. Following generally the procedures of Example 3, part B, and using respectively 6 mM (as nucleotide), 1.5 mM, and 1.5 mM concentrations of DNA, amphiphile and of co-lipid, the transfection enhancement provided by spermidine cholesterol carbamate (amphiphile No.53), in relation to N^1-spermidine cholesteryl carbamate, was determined to be about 30 fold.
Also following the procedures of Example 3, part B, and using respectively 4 mM (as nucleotide), 1 mM, and 2 mM concentrations of DNA, amphiphile and co-lipid, the transfection enhancement provided by spermine cholesterol carbamate (amphiphile No. 67)—in relation to N^1-thermospermine cholesteryl carbamate and N^1-spermine cholesteryl carbamate to which spermine cholesterol carbamate is similarly related—is at least about 30 fold.

[4] = tested on: Primary nasal polyp cells from a cystic fibrosis patient (Δ F508); assay: cAMP-stimulated transepithelial chloride secretion in modified Ussing chamber after pCMV-CFTR transfection; format: cell-based, human; details: 1:1 with DOPE; 42 μmolar amphiphile, 60 μmolar pCMV-CFTR; forskolin and IBMX
Protocol: Primary (non-immortalized) nasal polyp cells from an adult cystic fibrosis patient (homozygous for the Δ F508mutation) were grown on collagen-coated permeable filter supports (Millicells) to form a polarized and confluent epithelial monolayer. Once the monolayer was electrically tight (about 5 to 7 days post seeding, and as indicated by the development of resistance across the cell sheet), the apical surface can be exposed to formulations of cationic amphiphile: DNA complex.
In this case, the amphiphile (spermidine cholesterol carbamate) was provided as a 1:1 (by mole) mixture with DOPE, and this mixture was then complexed with pCMV-CFTR plasmid vector (a construct encoding wild type human cystic fibrosis transmembrane conductance regulator protein, see above). Concentrations in the final mixture were 42 μmolar of spermidine cholesterol carbamate (and also of DOPE) and 60 μmolar (based on morality in nucleotides) of the plasmid expression vector.
Expression of CFTR was determined by measuring cAMP-stimulated transepithelial chloride secretion in a modified Ussing chamber, Zabner et al., Nature Genetics, 6, 75-83 […]. The mucosal side of the epithelium was bathed in Ringer's bicarbonate solution bubbled with 95% O2 and 5% CO2. […] Transepithelial voltage was clamped to 0 m V and short circuit current was recorded. […]

[5] = Transgene expression by protonation state of the amphiphile in transfecting composition with DOPE; details: amphiphile as free base; with DOPE zwitterion; plasmid DNA sodium salt in water
Excerpt: An additional aspect of the invention concerns the protonation state of the cationic amphiphiles of the invention prior to their contacting plasmid DNA in order to form a therapeutic composition. It is within the practice of the invention to utilize fully protonated, partially protonated, or free base forms of the amphiphiles in order to form such therapeutic compositions. With respect to amphiphile No. 67 (spermine cholesterol carbamate), it has been observed that when providing this amphiphile for a transfecting composition with DOPE (itself provided as a zwitterion), transgene expression was best for the free base, but decreased if the amphiphile was prepared as an acetate salt. […] Under the circumstances described, the plasmid DNA provided for contacting with the amphiphile was prepared (without buffer) as a sodium salt in water.

[6] = Transacylation reaction of amphiphile with co-lipid DOPE on co-storage; format: physicochemical
Excerpt: Although heretofore unrecognized in the art, it has been determined also that certain co-lipids may react chemically with certain types of cationic amphiphiles under conditions of co-storage, there resulting new molecular species. Generation of such new species is believed to occur via mechanisms such as transacylation. In this regard, see FIG. 4 which depicts a transacylation reaction involving spermine cholesterol carbamate (No.67) and DOPE, there resulting lyso PE species and multiple forms of particular acyl-cationic amphiphile (designated No. 80).
It is expected that these phenomena would also apply to lyophilized amphiphile/DOPE preparations.
Accordingly, it is highly preferred to maintain such amphiphile/DOPE preparations at very cold temperatures, such as −70 degrees C.

[7] = 1.0-1.5 mM amphiphile, cholesterol 1:1, DNA 4.0-6.0 mM, intra-nasal

With “1,2-dimyristyloxypropyl-3-dimethyl-hydroxyethyl ammonium bromide [DMRIE, reference compound]” as the compound, how does the “CAT activity in lung” value (lungs of balb/c mice; 1:1 molar with DOPE, 1.7 mM DMRIE, 1.7 mM DOPE, 1.2 mM plasmid DNA as nucleotide) read?
Its value is 1 to 2 ng activity per 100 mg lung tissue.

Which “transferring CFTR-encoding plasmid into immortalized CF airway cells” value [1] does the source give for CC(C)CCCC(C)C1CCC2C3CC=C4CC(OC(=O)N(CCCN)CCCCN)CCC4(C)C3CCC12C (stereo not drawn) [amphiphile No. 53, N^4-spermidine cholesteryl carbamate] here?
Its value is “effective”.

What about the “excipient preferred to prevent formation of amphiphile/DNA aggregates” value [2] of the same compound?
Its value is “sucrose is preferred over mannitol”.

What about the “organ distribution of CAT expression” value (lung and heart; amphiphile/DNA molar ratio less than about 0.5) of the same compound?
The value was “strongly weighted toward the lung”.

What about the “organ distribution of CAT expression” value (lung and heart; amphiphile/DNA ratio of 1.25) of the same compound?
The value was “substantial expression was found in the heart”.

And the “targeting to the lung over a range of amphiphile/DNA ratios” value (lung and heart; constant DNA concentration 0.9 mM, i.v.)?
Its value is “remained relatively constant”.

What about the “transfection efficiency improved by a factor, relative to DMRIE:DOPE (1:1)” value [3] of the same compound?
Its value is “about 5”.

What about the “enhancement of in vivo transfection (ng CAT activity per 100 mg tissue) in relation to DMRIE and DC-Chol” value (lungs of balb/c mice; 1.5 mM amphiphile, 1:1 DOPE, 6 mM DNA (nucleotide), intra-nasal, 2 days) of the same compound?
The value was ≥ 20 fold.

And the “transfection efficiency (ng CAT/100 mg tissue) with cholesterol as co-lipid, compared with DOPE as co-lipid” value (lungs of balb/c mice; [7])?
Its value is “less effective”.

And the “transfection with cholesterol as co-lipid, compared with DC-Chol/DOPE” value (lungs of balb/c mice; [7])?
Its value is “substantially more effective”.

What about the “toxicity to the target cells” value (lungs of balb/c mice; about 0.75 mM amphiphile and 3.0 mM plasmid, versus the optimal 1.5 mM/6 mM) of the same compound?
The value was “less toxic”.

And the “activity of amphiphile (in vivo transfection)” value (lungs of mice)?
Its value is “highly active”.

And the “in vivo transfection in comparison with non T-shaped amphiphiles having equivalent cationic alkylamine structure” value (lungs of mice)?
Its value is “superior transfectants”.

And the cAMP-stimulated current [4]?
Its cAMP-stimulated current is 0.5 to 2.5 μampere/cm^2.

Which results are given for CC(C)CCCC(C)C1CCC2C3CC=C4CC(OC(=O)N(CCCN)CCCCNCCCN)CCC4(C)C3CCC12C (stereo not drawn) [amphiphile No. 67, N^4-spermine cholesteryl carbamate]?
transgene expression [5]: best; activity of amphiphile (in vivo transfection) (lungs of mice): highly active; in vivo transfection in comparison with non T-shaped amphiphiles having equivalent cationic alkylamine structure (lungs of mice): superior transfectants; transacylation with DOPE ([6]; amphiphile as mono, di, or tri acetate salt): slow transacylations; transacylation with DOPE ([6]; aqueous solution where bilayer-containing structures such as liposomes can form): will permit transacylation; transacylation with DOPE ([6]; mixture of amphiphile and DOPE in chloroform solvent): does not appear to participate

Which “activity of amphiphile (in vivo transfection)” value (lungs of mice) does the source give for CC(C)CCC[C@@H](C)[C@H]1CC[C@H]2[C@@H]3CC=C4C[C@@H](OC(=O)N(CCCCNCCCN)CCCNCCCN)CC[C@]4(C)[C@H]3CC[C@]12C [amphiphile No. 75, N^1,N^8-Bis(3-aminopropyl)-N^4-spermidine cholesteryl carbamate] here?
The value was “highly active”.
